Measured values published in ChEMBL document CHEMBL1133255 (Bioorg Med Chem Lett, 2000).

Key:
[1] = species: Oryctolagus cuniculus; experiment: The compound was tested for its […] activity using rabbit saphenous vein (RSV) preparation; type: functional
[2] = molecular target: 5-hydroxytryptamine receptor 1D (Homo sapiens, UniProt P28221); experiment: Binding affinity for human 5-hydroxytryptamine 1D receptor
[3] = molecular target: 5-hydroxytryptamine receptor 1B (Homo sapiens, UniProt P28222); experiment: Binding affinity towards cloned human 5-hydroxytryptamine 1B receptor
Chain of 5-hydroxytryptamine receptor 1B (P28222 whole entry): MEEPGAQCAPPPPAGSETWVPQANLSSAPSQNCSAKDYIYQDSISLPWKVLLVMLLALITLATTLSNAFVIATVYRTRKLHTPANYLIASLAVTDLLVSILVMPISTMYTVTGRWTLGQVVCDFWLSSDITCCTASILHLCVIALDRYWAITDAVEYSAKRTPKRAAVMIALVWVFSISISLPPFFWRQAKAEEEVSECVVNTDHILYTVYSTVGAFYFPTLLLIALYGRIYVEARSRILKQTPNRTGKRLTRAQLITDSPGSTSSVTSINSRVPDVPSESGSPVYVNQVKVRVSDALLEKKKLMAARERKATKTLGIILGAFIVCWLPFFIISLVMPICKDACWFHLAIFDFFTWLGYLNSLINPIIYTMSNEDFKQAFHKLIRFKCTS

Chain of 5-hydroxytryptamine receptor 1D (P28221 whole entry): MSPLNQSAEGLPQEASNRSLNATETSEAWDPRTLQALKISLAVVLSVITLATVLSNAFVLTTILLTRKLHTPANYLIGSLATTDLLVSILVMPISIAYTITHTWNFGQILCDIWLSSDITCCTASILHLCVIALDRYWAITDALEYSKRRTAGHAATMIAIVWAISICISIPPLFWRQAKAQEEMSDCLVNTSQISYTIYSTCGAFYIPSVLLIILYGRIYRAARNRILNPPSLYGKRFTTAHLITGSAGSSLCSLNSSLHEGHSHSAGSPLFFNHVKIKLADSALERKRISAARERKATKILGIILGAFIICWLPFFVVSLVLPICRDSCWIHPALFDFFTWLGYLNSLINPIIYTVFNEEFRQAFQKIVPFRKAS

CNS(=O)(=O)Cc1ccc2[nH]cc(CCN(C)C)c2c1
EC50 [1]: 0.174 µM

CC(C)(C)c1ccc2[nH]cc(CCN3CCCC3)c2c1
Ki [2]: 0.0025 µM | Ki [3]: 0.312 µM | EC50 [1]: 1.17 µM

CC(C)c1ccc2[nH]cc(CCN3CCCC3)c2c1
Ki [2]: 0.0053 µM | Ki [3]: 0.472 µM | EC50 [1]: 0.44 µM

CC(C)c1ccc2[nH]cc(CCN(C)C)c2c1
Ki [2]: 0.0004 µM | Ki [3]: 0.0142 µM

Cc1ccc2[nH]cc(C[C@H]3CCCN3C)c2c1
Ki [2]: 0.0035 µM | Ki [3]: 0.118 µM | EC50 [1]: 0.102 µM

Cn1cc(CCN)c2cc(C(C)(C)C)ccc21
Ki [2]: 0.00045 µM

CC(C)c1ccc2[nH]cc(C[C@H]3CCCN3C)c2c1
Ki [2]: 0.00029 µM | Ki [3]: 0.0104 µM | EC50 [1]: 0.0286 µM

CCc1ccc2[nH]cc(C[C@H]3CCCN3C)c2c1
Ki [2]: 0.00097 µM | Ki [3]: 0.047 µM | EC50 [1]: 0.0147 µM

CCc1ccc2[nH]cc(CCN3CCCC3)c2c1
Ki [2]: 0.045 µM | Ki [3]: 1.62 µM

CN1CCC[C@@H]1Cc1c[nH]c2ccc(C(C)(C)C)cc12
Ki [2]: 0.00025 µM | Ki [3]: 0.0155 µM | EC50 [1]: 0.0518 µM

CCc1ccc2[nH]cc(CCN(C)C)c2c1
Ki [2]: 0.016 µM | EC50 [1]: 0.35 µM
